In patent US20100278858A1, “PROCESS FOR PREPARING […] STRAINS” (priority 2007, published 2010):
Converted amounts (≈) assume the structure as drawn.

Legend:
Assay in all cases: method of reducing viral plates (plaque reduction)
HSV-1 TK^− B2006 = assay type: cell-based; conditions: for IC50: Human alphaherpesvirus 1; for Relative resistance (RR): IC50 of HSV-1 TK^− B2006 / IC50 of HSV-1 (F)
Procedure: (§1) According to the present invention, a method of reducing the viral plates comprises the following process: Vero cells monolayers developed in 24 wells microplates are infected with 50 UFP/well of virus in the absence or presence of different compounds concentrations. Each dilution is tested by duplicate. After 1 hour adsorption at 37° C., the inoculum is removed and covered by plating medium (culture media with methylcellulose at a final concentration of 0.7%). Inoculation is continued till the viral plates' appearance, which are then counted after fitting and dying the cells with violet crystal. Moreover, according to the present invention, 50% inhibitory concentration (IC50) means the compound concentration required for reducing about 50% the number of viral plates.
(§2) Thus, preliminary tests of the cloned variants of passages with greater selection pressure of 1C3 (17, 20 and 21) with pyrimidine and purine analogous as aciclovir (ACV) and brivudin (BVDU) would disclose alterations at viral TK level as it is shown in Table VIII, a characteristic that, up to date, has not been published in previous art documents. The TK gene is not essential for the in vitro viral replication, though in vivo, is involved in the virulence, pathogenicity and reactivation since latency (Andrei G et al., 2005). […] Therefore, the selection pressure to which the viruses were subjected could have selected mutations in the TK gene and in additional superimposing genes generating strains with less in vivo pathogenic action (Jacobson J et al., 1993).

1C3-syn-14-1 = assay type: cell-based, HSV-1; conditions: for IC50: Human alphaherpesvirus 1, strain 1C3 syn 14-1, read-out: IC50; for IC50 / Relative resistance (RR): Table VIII; for Relative resistance (RR): IC50 of clone 1C3 syn 14-1 / IC50 of HSV-1 (F)
Procedure: as §1
(§3) Compounds were present during the viral adsorption (1h, 37° C.) and after the infection. When a cytopathic action (ACP) between 80-90%, during a period among 24 to 72 hours p.i., was observed, cells were lysed with freeze-thawing cycles. In order to remove cellular moieties, the cellular lisate was centrifuged during 10 min at 1000 rpm, keeping the supernatant at −70° C. The supernatant was used to infect a new monolayer in the presence of SAMMA or PRO2000. […] The title and the IC50 of each viral passage was determined by viral plates reduction test (or after 2-3 passages) against SAMMA or PRO20000.

1C3 syn 17-2 = assay type: cell-based, HSV-1; conditions: for IC50: Human alphaherpesvirus 1, strain 1C3 syn 17-2, read-out: IC50; for Relative resistance (RR): IC50 of clone 1C3 syn 17-2 / IC50 of HSV-1 (F)
Procedure: as §1, §2

1C3 syn 20-1 = assay type: cell-based, HSV-1; conditions: for IC50: Human alphaherpesvirus 1, strain 1C3 syn 20-1, read-out: IC50; for Relative resistance (RR): IC50 of clone 1C3 syn 20-1 / IC50 of HSV-1 (F)
Procedure: as §1, §2

1C3 syn 21-1 = assay type: cell-based, HSV-1; conditions: for IC50: Human alphaherpesvirus 1, strain 1C3 syn 21-1, read-out: IC50; for Relative resistance (RR): IC50 of clone 1C3 syn 21-1 / IC50 of HSV-1 (F)
Procedure: as §1, §2

1C3 syn 17-1 = assay type: cell-based, HSV-1; conditions: for IC50: Human alphaherpesvirus 1, strain 1C3 syn 17-1, read-out: IC50; for Relative resistance (RR): IC50 of clone 1C3 syn 17-1 / IC50 of HSV-1 (F)
Procedure: as §1, §2

1C3 syn 20-3 = assay type: cell-based, HSV-1; conditions: for IC50: Human alphaherpesvirus 1, strain 1C3 syn 20-3, read-out: IC50; for Relative resistance (RR): IC50 of clone 1C3 syn 20-3 / IC50 of HSV-1 (F)
Procedure: as §1, §2

1C3 syn 21-3 = assay type: cell-based, HSV-1; conditions: for IC50: Human alphaherpesvirus 1, strain 1C3 syn 21-3, read-out: IC50; for Relative resistance (RR): IC50 of clone 1C3 syn 21-3 / IC50 of HSV-1 (F)
Procedure: as §1, §2

1C3 syn 20-2 = assay type: cell-based, HSV-1; conditions: for IC50: Human alphaherpesvirus 1; for Relative resistance (RR): IC50 of clone 1C3 syn 20-2 / IC50 of HSV-1 (F)
Procedure: as §1, §2

1C3 syn 21-2 = assay type: cell-based, HSV-1; conditions: for IC50: Human alphaherpesvirus 1, strain 1C3 syn 21-2, read-out: IC50; for Relative resistance (RR): IC50 of clone 1C3 syn 21-2 / IC50 of HSV-1 (F)
Procedure: as §1, §2

1C3 syn 17-3 = assay type: cell-based, HSV-1; conditions: for IC50: Human alphaherpesvirus 1, strain 1C3 syn 17-3, read-out: IC50; for Relative resistance (RR): IC50 of clone 1C3 syn 17-3 / IC50 of HSV-1 (F)
Procedure: as §1, §2

HSV-1 (F) = assay type: cell-based; conditions: Human alphaherpesvirus 1; Table VIII; strain HSV-1 (F); read-out: IC50
Procedure: as §1, §3

Structure (SMILES) | IC50 (HSV-1 TK^− B2006) | Relative resistance (RR) (HSV-1 TK^− B2006) | IC50 (1C3-syn-14-1) | Relative resistance (RR) (1C3-syn-14-1) | IC50 (1C3 syn 17-2) | Relative resistance (RR) (1C3 syn 17-2) | IC50 (1C3 syn 20-1) | Relative resistance (RR) (1C3 syn 20-1) | IC50 (1C3 syn 21-1) | Relative resistance (RR) (1C3 syn 21-1) | IC50 (1C3 syn 17-1) | Relative resistance (RR) (1C3 syn 17-1) | IC50 (1C3 syn 20-3) | Relative resistance (RR) (1C3 syn 20-3) | IC50 (1C3 syn 21-3) | Relative resistance (RR) (1C3 syn 21-3) | IC50 (1C3 syn 20-2) | Relative resistance (RR) (1C3 syn 20-2) | IC50 (1C3 syn 21-2) | Relative resistance (RR) (1C3 syn 21-2) | further results
O=C(O)P(=O)(O)O [Foscarnet, foscarnet] | 35.1 µg/mL (≈ 279 µM) | 5.0 | 3.12 µg/mL (≈ 24.8 µM) | < 1.0 | 12.5 µg/mL (≈ 99.2 µM) | 2.0 | 12.5 µg/mL (≈ 99.2 µM) | 2.0 | 8.82 µg/mL (≈ 70 µM) | 1.4 | 17.6 µg/mL (≈ 140 µM) | 2.9 | 17.6 µg/mL (≈ 140 µM) | 2.9 | 12.5 µg/mL (≈ 99.2 µM) | 2.0 | 12.5 µg/mL (≈ 99.2 µM) | 2.0 | 17.6 µg/mL (≈ 140 µM) | 2.9 | IC50 (1C3 syn 17-3): 17.6 µg/mL (≈ 140 µM); Relative resistance (RR) (1C3 syn 17-3): 2.9; IC50 (HSV-1 (F)): 6.12 µg/mL (≈ 48.6 µM)
Nc1nc2c(ncn2COCCO)c(=O)[nH]1 [Aciclovir, aciclovir] | > 0.5 µg/mL | 10.0 | 0.1 µg/mL (≈ 0.444 µM) | 2.0 | 0.2 µg/mL (≈ 0.888 µM) | 4.0 | 0.4 µg/mL (≈ 1.78 µM) | 8.0 | 0.2 µg/mL (≈ 0.888 µM) | 4.0 | 0.28 µg/mL (≈ 1.24 µM) | 5.6 | 0.2 µg/mL (≈ 0.888 µM) | 4.0 | 0.2 µg/mL (≈ 0.888 µM) | 4.0 | 0.2 µg/mL (≈ 0.888 µM) | 4.0 | 0.4 µg/mL (≈ 1.78 µM) | 8.0 | susceptibility of variant to drug (in words) (1C3-syn-14-1; variant 1C3-syn-14-1): rare resistance; IC50 (1C3 syn 17-3): 0.2 µg/mL (≈ 0.888 µM); Relative resistance (RR) (1C3 syn 17-3): 4.0; IC50 (HSV-1 (F)): 0.05 µg/mL (≈ 0.222 µM)
